According to paper PMC8597786 (Antimicrobial Agents and Chemotherapy, 2021):
Like-named read-outs stand apart in the source and are kept apart here.

Assays:
Assay in all cases: microbe, parasite or virus in culture
[1] = test system: SARS-CoV-2 (USA-WA1/2020 variant); type: cell-based
[2] = test system: SARS-CoV-2 variant B.1.1.7; type: cell-based, SARS-CoV-2 B.1.1.7; conditions: Severe acute respiratory syndrome coronavirus 2, Vero C1008, 96 h; 4 days; read-out: EC50 for CPE scoring-based assay for B.1.1.7
[3] = test system: SARS-CoV-2 variant B.1.351; type: cell-based, SARS-CoV-2 B.1.351; conditions: for EC50: Severe acute respiratory syndrome coronavirus 2, Vero C1008, 96 h, 4 days, read-out: EC50 for CPE scoring-based assay for B.1.351
[4] = test system: SARS-CoV-2 (USA-WA1/2020 variant); type: cell-based; conditions: Severe acute respiratory syndrome coronavirus 2, Vero C1008, 96 h; 4 days; read-out: EC50: viability restoration in infected cells for WA1/2020
[5] = test system: SARS-CoV-2 variant B.1.351; type: cell-based, SARS-CoV-2 B.1.351; conditions: Severe acute respiratory syndrome coronavirus 2, Vero C1008, 168 h, read-out: EC50: viability restoration in infected cells for B.1.351
[6] = test system: SARS-CoV-2 (USA-WA1/2020 variant); type: cell-based; conditions: for EC50: Severe acute respiratory syndrome coronavirus 2, Vero C1008, 48 h, read-out: EC50: yield reduction assay for WA1/2020
[7] = test system: SARS-CoV-2 variant B.1.1.7; conditions: for EC50: Severe acute respiratory syndrome coronavirus 2, Vero C1008, 168 h, read-out: EC50: viability restoration in infected cells for B.1.1.7
[8] = test system: SARS-CoV-2 variant B.1.1.7; type: cell-based, SARS-CoV-2 B.1.1.7
[9] = test system: SARS-CoV-2 variant B.1.351; type: cell-based, SARS-CoV-2 B.1.351
[10] = Severe acute respiratory syndrome coronavirus 2, Vero C1008, 96 h, 4 days, read-out: EC50 for CPE scoring-based assay for WA1/2020
[11] = Severe acute respiratory syndrome coronavirus 2, Vero C1008, read-out: EC50s, range over cytopathic effect and yield reduction assays

Row | Structure (SMILES) | EC50 [1, 10] [µM] | EC50 [2] [µM] | EC50 [3] [µM] | EC50 [4] [µM] | EC50 [5] [µM] | % infected, Average ([6]; 1 μM) [%] | % infected, Average ([6]; 3 μM) [%] | % infected, Average ([6]; 10 μM) [%] | % infected, Average ([6]; 30 μM) [%] | % infected, Average ([6]; 50 μM) [%] | EC50 [6] [µM] | EC50 [7] [µM] | EC50 [1, 11] [µM] | further results
1 | OC[C@H]1O[C@@H](Oc2cc3c4c(c2)[C@@H]([C@@H]2c5cc(O)cc6c5[C@@H](c5cc(O)cc(O)c5[C@H]2c2ccc(O)cc2)[C@H](c2ccc(O)cc2)O6)[C@H](c2ccc(O)cc2)c2c(O)cc(O)cc2[C@H]4[C@H](c2ccc(O)cc2)O3)[C@H](O)[C@@H](O)[C@@H]1O [Vatalbinoside A, vatalbinoside A] | 13.8 | 4 | 3.6 | 18.8 | 11.3 | 17.1 | 17.8 | 16.7 | 9.9 | 11.2 | 19.1 | > 50 | – | viability at 20 µM ([7]; Severe acute respiratory syndrome coronavirus 2, read-out: Restored viability in B.1.1.7-infected cells): ≤ 51.2%
2 | Oc1ccc(/C=C/c2cc(O)cc(O)c2)cc1 [Resveratrol, resveratrol, reference compound] | > 100 | – | – | > 50 | – | – | – | – | – | – | – | – | – | –
3 | Oc1ccc([C@@H]2c3c(O)cc(O)cc3[C@@H]3c4c(cc(O)cc4[C@H]2[C@@H]2c4cc(O)cc5c4[C@@H](c4cc(O)cc(O)c4[C@H]2c2ccc(O)cc2)[C@H](c2ccc(O)cc2)O5)O[C@H]3c2ccc(O)cc2)cc1 [Hopeaphenol, (–)-hopeaphenol] | 10.2 | 14.8 | 2.3 | 23.4 | 7.5 | 29.2 | 23.0 | 18.7 | 11.5 | 3.6 | 13.5 | 7.8 | 10.2 to 23.4 | EC50 ([1]; Severe acute respiratory syndrome coronavirus 2, read-out: EC50s in infectious viral assays, range): 2.3 to 23.4 µM; Fold improved activity against B.1.351 over USA-WA1/2020 (CPE EC50) [3]: 4.5 fold; % infected, Average ([8]; 3 μM): 12.1%; % infected, Average ([8]; 10 μM): 10.4%; % infected, Average ([8]; 20 μM): 6.7%; % infected, Average ([8]; 50 μM): 0.0%; EC50 ([8]; Severe acute respiratory syndrome coronavirus 2, Vero C1008, 48 h, read-out: EC50: yield reduction assay for B.1.1.7): 11.4 µM; % infected, Average ([9]; 3 μM): 20.6%; % infected, Average ([9]; 10 μM): 11.6%; % infected, Average ([9]; 20 μM): 9.9%; % infected, Average ([9]; 50 μM): 0.1%; EC50 ([9]; Severe acute respiratory syndrome coronavirus 2, Vero C1008, 48 h, read-out: EC50: yield reduction assay for B.1.351): 8.8 µM
4 | Oc1ccc([C@@H]2c3c(O)cc(O)cc3[C@@H]3c4c(cc(O)c5c4[C@@H]2[C@H](c2ccc(O)cc2)[C@H]5c2cc(O)cc4c2[C@@H](c2cc(O)cc(O)c2)[C@H](c2ccc(O)cc2)O4)O[C@H]3c2ccc(O)cc2)cc1 [Vaticanol B, vaticanol B] | 37 | 32.4 | 25.3 | > 50 | > 50 | – | – | 30.0 | 26.8 | 16.9 | > 50 | > 50 | – | –
5 | CCC(CC)COC(=O)[C@H](C)N[P@](=O)(OC[C@H]1O[C@@](C#N)(c2ccc3c(N)ncnn23)[C@H](O)[C@@H]1O)Oc1ccccc1 [Remdesivir, remdesivir, reference compound] | 2.5 | 1.5 | 1.4 | 7.3 | > 10 | 13.5 | 8.5 | 0.0 | – | – | 1 | > 10 | 1 to 7.3 | % infected, Average ([6]; 0.3 μM): 21.0%
6 | CC(C)C[C@H](NC(=O)OCc1ccccc1)C(=O)N[C@@H](CC1CCNC1=O)C(O)S(=O)(=O)O (stereo partly drawn) [GC-376, reference compound] | – | – | – | – | – | – | – | – | – | – | – | – | – | EC50 ([1]; 4 days, read-out: EC50 for CPE scoring-based assay for WA1/2020): 3.9 µM
